# Active and inactive are the calls of the source. No cut-off for these calls is given here.
# What was measured:
# [1] = Cytotoxicity against human SNU-C4 HiBiT-PXR KI cell assessed as cell viability at 30 uM incubated for 24 hrs by celltiter-glo luminescent assay relative to control; format: functional; conditions: read-out: Activity
# [2] = Cytotoxicity against human SNU-C4 HiBiT-PXR KI cell assessed as cell viability incubated for 24 hrs by celltiter-glo luminescent assay; format: functional
# [3] = Cytotoxicity against human SNU-C4 HiBiT-PXR KI cell assessed as cell viability incubated for 72 hrs by celltiter-glo luminescent assay; format: functional
# [4] = Cytotoxicity against human SNU-C4 HiBiT-PXR KI cell assessed as cell viability at 30 uM incubated for 72 hrs by celltiter-glo luminescent assay relative to control; format: functional; conditions: read-out: Activity
# [5] = molecular target: T1, von Hippel-Lindau disease tumor suppressor/Nuclear receptor subfamily 1 group I member 2 (Homo sapiens, UniProt O75469+P40337); assay: PROTAC activity at N-terminal PXR/VHL in human SNU-C4 HiBiT-PXR KI cell assessed as PXR degradation upto 10 uM incubated at 24 hrs by Western blot analysis; format: cell-based
# [6] = molecular target: T1, von Hippel-Lindau disease tumor suppressor/Nuclear receptor subfamily 1 group I member 2; assay: PROTAC activity at […] PXR/VHL in human SNU-C4 HiBiT-PXR KI cell assessed as PXR degradation incubated at 24 hrs by Western blot analysis; format: cell-based
# [7] = molecular target: T1, von Hippel-Lindau disease tumor suppressor/Nuclear receptor subfamily 1 group I member 2; assay: PROTAC activity at PXR/VHL in human SNU-C4 HiBiT-PXR KI cell assessed as PXR degradation at 1 uM incubated for 8 hrs in presence of methyl (S)-3-(1-(2,5-dimethoxyphenyl)-5-methyl-1H-1,2,3-triazole-4-carboxamido)-4-(hexan-3-yloxy)benzoate by Western blot analysis; format: cell-based
# [8] = molecular target: T1, von Hippel-Lindau disease tumor suppressor/Nuclear receptor subfamily 1 group I member 2; assay: PROTAC activity at PXR/VHL in human SNU-C4 HiBiT-PXR KI cell assessed as PXR degradation at 1 uM incubated for 8 hrs in presence of VH032 by Western blot analysis; format: cell-based
# [9] = molecular target: T1, von Hippel-Lindau disease tumor suppressor/Nuclear receptor subfamily 1 group I member 2; assay: PROTAC activity at PXR/VHL in human SNU-C4 HiBiT-PXR KI cell assessed as PXR degradation at 1 uM incubated for 8 hrs in presence of MG132 by Western blot analysis; format: cell-based
# [10] = molecular target: T1, von Hippel-Lindau disease tumor suppressor/Nuclear receptor subfamily 1 group I member 2; assay: PROTAC activity at PXR/VHL in human SNU-C4 HiBiT-PXR KI cell assessed as PXR degradation at 1 uM incubated for 8 hrs in presence of MLN4924 by Western blot analysis; format: cell-based
# [11] = molecular target: von Hippel-Lindau disease tumor suppressor/Nuclear receptor subfamily 1 group I member 3 (Homo sapiens, UniProt Q14994+P40337); assay: PROTAC activity at CAR/VHL in HEK293T cells assessed as CAR degradation at 0.001 to 100 uM incubated for 24 hrs; format: cell-based; conditions: dose 0.001-100 µM
# [12] = molecular target: von Hippel-Lindau disease tumor suppressor/Vitamin D3 receptor (Homo sapiens) (UniProt P11473+P40337); assay: PROTAC activity at VDR/VHL in HEK293T cells assessed as VDR degradation at 0.001 to 100 uM incubated for 24 hrs; format: cell-based; conditions: dose 0.001-100 µM
# [13] = molecular target: von Hippel-Lindau disease tumor suppressor/Bile acid receptor (Homo sapiens) (UniProt Q96RI1+P40337); assay: PROTAC activity at FXR/VHL in HEK293T cells assessed as FXR degradation at 0.001 to 100 uM incubated for 24 hrs; format: cell-based; conditions: dose 0.001-100 µM
# [14] = molecular target: von Hippel-Lindau disease tumor suppressor/Oxysterols receptor LXR-alpha (Homo sapiens) (UniProt Q13133+P40337); assay: PROTAC activity at LXRalpha/VHL in HEK293T cells assessed as LXRalpha degradation at 0.001 to 100 uM incubated for 24 hrs; format: cell-based; conditions: dose 0.001-100 µM
# [15] = molecular target: von Hippel-Lindau disease tumor suppressor/Oxysterols receptor LXR-beta (Homo sapiens) (UniProt P55055+P40337); assay: PROTAC activity at LXRbeta/VHL in HEK293T cells assessed as LXRbeta degradation at 0.001 to 100 uM incubated for 24 hrs; format: cell-based; conditions: dose 0.001-100 µM
# [16] = molecular target: T2, Nuclear receptor subfamily 1 group I member 2 (Homo sapiens, UniProt O75469); assay: Inhibition of PXR activation in human HepG2 cells transfected with CYP3A4 incubated for 24 hrs in presence of rifampicin; format: cell-based; conditions: hepg2, 24 h
# T2 sequence (O75469 whole entry): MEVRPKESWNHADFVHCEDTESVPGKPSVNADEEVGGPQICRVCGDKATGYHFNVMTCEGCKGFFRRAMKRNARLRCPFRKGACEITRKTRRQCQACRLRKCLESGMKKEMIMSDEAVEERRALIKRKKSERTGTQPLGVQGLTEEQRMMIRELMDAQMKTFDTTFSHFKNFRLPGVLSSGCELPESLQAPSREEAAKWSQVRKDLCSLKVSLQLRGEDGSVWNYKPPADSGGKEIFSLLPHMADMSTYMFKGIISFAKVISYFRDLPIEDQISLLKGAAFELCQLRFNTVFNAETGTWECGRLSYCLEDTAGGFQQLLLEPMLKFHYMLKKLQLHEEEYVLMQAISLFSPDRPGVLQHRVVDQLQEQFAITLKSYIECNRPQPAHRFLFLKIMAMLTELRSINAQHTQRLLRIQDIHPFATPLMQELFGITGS
# [17] = molecular target: T2, Nuclear receptor subfamily 1 group I member 2; assay: Inhibition of PXR activation in human HepG2 cells transfected with CYP3A4 incubated for 24 hrs in presence of T0901317; format: cell-based; conditions: hepg2, 24 h
# [18] = molecular target: T2, Nuclear receptor subfamily 1 group I member 2; assay: Inhibition of PXR activation in human HepG2 cells transfected with CYP3A4 incubated for 24 hrs in presence of paclitaxel; format: cell-based; conditions: hepg2, 24 h
# HepG2 = assay: Reduction in basal PXR activity on CYP3A4 promoter in human HepG2 cells at 10 uM in absence of PXR agonist; format: functional, cell-based
# [19] = molecular target: T2, Nuclear receptor subfamily 1 group I member 2; assay: Inhibition of PXR activation in human SNU-C4 cells transfected with CYP3A4 at 10 uM incubated for 24 hrs in presence of paclitaxel; format: cell-based; conditions: snu-c4, 24 h
# SNU-C4 [20] = assay: Effect on PXR mRNA level in human SNU-C4 cells at 10 uM incubated for 24 hrs in presence of paclitaxel by RT-qPCR analysis; format: functional, cell-based
# SNU-C4 [21] = assay: Cytotoxicity against human SNU-C4 cells assessed as cell viability incubated for 72 hrs in presence of paclitaxel; format: functional
# [22] = molecular target: T1, von Hippel-Lindau disease tumor suppressor/Nuclear receptor subfamily 1 group I member 2; assay: PROTAC activity at PXR/VHL in human SNU-C4 HiBiT-PXR KI cell assessed as inhibition of LBD-VCB complex formation at 41.2 nM incubated for 24 hrs by TR-FRET assay; format: cell-based; conditions: 0.0412 µM
# T1 sequence (P40337 whole entry, one chain of several): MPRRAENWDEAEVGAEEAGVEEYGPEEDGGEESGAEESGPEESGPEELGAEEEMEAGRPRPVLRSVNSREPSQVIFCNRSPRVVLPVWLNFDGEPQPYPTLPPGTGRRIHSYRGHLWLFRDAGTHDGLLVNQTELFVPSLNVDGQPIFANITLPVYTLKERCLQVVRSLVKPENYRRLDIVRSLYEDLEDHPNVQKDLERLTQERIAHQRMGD
# Sequence of von Hippel-Lindau disease tumor suppressor/Nuclear receptor subfamily 1 group I member 3 (Q14994 whole entry): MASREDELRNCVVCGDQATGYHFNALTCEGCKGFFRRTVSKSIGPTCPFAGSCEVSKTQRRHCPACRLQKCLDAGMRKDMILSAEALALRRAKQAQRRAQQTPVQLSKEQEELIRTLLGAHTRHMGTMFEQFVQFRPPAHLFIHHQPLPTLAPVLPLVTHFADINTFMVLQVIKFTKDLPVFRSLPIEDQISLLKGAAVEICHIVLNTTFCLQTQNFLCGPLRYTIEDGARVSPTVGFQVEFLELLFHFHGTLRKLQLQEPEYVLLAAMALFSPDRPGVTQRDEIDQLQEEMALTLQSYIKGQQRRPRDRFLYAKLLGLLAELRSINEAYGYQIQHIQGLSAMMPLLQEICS
# Sequence of von Hippel-Lindau disease tumor suppressor/Nuclear receptor subfamily 1 group I member 3 (P40337 whole entry): as the sequence (P40337 whole entry, one chain of several) above
# Sequence of von Hippel-Lindau disease tumor suppressor/Oxysterols receptor LXR-beta (Homo sapiens) (P40337 whole entry, looked up): as the sequence (P40337 whole entry, one chain of several) above
# Sequence of von Hippel-Lindau disease tumor suppressor/Oxysterols receptor LXR-beta (Homo sapiens) (P55055 whole entry, looked up): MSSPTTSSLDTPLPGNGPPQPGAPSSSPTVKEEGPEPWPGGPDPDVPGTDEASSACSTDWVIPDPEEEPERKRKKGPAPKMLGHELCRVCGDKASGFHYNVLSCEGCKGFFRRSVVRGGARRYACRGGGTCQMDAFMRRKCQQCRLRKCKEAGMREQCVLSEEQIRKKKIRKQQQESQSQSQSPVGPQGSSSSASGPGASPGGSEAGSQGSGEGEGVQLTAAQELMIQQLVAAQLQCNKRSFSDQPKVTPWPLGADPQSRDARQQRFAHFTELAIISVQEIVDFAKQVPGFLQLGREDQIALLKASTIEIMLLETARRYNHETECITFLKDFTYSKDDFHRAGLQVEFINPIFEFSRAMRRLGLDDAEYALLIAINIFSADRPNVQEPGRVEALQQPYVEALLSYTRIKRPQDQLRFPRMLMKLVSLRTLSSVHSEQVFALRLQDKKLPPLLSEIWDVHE
# Sequence of von Hippel-Lindau disease tumor suppressor/Bile acid receptor (Homo sapiens) (P40337 whole entry, looked up): as the sequence (P40337 whole entry, one chain of several) above
# Sequence of von Hippel-Lindau disease tumor suppressor/Bile acid receptor (Homo sapiens) (Q96RI1 whole entry, looked up): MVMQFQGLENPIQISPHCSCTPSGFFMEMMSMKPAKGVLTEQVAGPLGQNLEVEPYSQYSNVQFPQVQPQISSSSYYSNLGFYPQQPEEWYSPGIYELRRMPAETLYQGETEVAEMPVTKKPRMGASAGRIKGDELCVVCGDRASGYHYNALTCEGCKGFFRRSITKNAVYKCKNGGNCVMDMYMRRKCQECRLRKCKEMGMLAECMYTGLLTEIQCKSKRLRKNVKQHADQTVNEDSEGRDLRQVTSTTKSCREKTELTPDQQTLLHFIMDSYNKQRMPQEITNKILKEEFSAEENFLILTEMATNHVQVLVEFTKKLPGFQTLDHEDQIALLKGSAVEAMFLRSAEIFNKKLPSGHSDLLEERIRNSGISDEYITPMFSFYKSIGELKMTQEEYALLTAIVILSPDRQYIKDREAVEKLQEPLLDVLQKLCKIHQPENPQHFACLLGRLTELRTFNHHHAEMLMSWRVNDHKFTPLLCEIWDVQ
# Sequence of von Hippel-Lindau disease tumor suppressor/Oxysterols receptor LXR-alpha (Homo sapiens) (P40337 whole entry, looked up): as the sequence (P40337 whole entry, one chain of several) above
# Sequence of von Hippel-Lindau disease tumor suppressor/Oxysterols receptor LXR-alpha (Homo sapiens) (Q13133 whole entry, looked up): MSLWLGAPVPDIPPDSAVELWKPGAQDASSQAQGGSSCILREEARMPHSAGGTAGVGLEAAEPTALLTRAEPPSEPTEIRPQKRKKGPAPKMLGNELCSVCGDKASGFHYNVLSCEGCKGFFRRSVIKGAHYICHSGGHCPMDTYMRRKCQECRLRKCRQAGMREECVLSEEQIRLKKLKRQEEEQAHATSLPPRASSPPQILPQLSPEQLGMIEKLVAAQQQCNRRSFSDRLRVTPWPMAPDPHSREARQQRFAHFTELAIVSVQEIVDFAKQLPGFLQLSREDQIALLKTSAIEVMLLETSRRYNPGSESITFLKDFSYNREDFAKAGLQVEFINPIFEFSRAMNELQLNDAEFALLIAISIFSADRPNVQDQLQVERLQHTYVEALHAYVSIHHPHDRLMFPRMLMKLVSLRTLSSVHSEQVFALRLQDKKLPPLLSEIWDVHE
# Sequence of von Hippel-Lindau disease tumor suppressor/Vitamin D3 receptor (Homo sapiens) (P11473 whole entry, looked up): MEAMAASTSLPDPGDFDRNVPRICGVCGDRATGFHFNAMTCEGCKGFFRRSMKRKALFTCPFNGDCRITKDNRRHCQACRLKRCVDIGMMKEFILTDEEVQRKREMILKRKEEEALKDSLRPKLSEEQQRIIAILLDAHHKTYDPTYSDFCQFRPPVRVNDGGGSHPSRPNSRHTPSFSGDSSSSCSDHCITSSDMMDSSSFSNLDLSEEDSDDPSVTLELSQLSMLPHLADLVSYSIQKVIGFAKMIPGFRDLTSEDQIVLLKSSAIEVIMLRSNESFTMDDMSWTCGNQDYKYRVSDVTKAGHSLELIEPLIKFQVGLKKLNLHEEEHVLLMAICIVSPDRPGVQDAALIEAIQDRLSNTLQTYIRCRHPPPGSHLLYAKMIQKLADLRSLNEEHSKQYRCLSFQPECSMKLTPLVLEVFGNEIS
# Sequence of von Hippel-Lindau disease tumor suppressor/Vitamin D3 receptor (Homo sapiens) (P40337 whole entry, looked up): as the sequence (P40337 whole entry, one chain of several) above
Activity [5],Activity [7],Activity [8],Activity [9],Activity [10],Activity [11],Activity [12],Activity [13],Activity [14],Activity [15],Compound,viability at 30 µM [1],CC50 [2],CC50 [3],viability at 30 µM [4],further results
Active,Not Active,Not Active,Not Active,Not Active,Not Active,inactive,inactive,inactive,inactive,CCC[C@H](CC)Oc1ccc(C(C)(C)C)cc1NC(=O)c1nnn(-c2cc(OC)c(OCCCCCCOCCOCC(=O)N[C@H](C(=O)N3C[C@H](O)C[C@H]3C(=O)NCc3ccc(-c4scnc4C)cc3)C(C)(C)C)cc2OC)c1C,97.4%,> 30 µM,> 30 µM,99.5%,DC50 [6]: 0.0531 µM
Active,Not Active,Not Active,Not Active,Not Active,Not Active,inactive,inactive,inactive,inactive,CCC[C@H](CC)Oc1ccc(C(=O)OC)cc1NC(=O)c1nnn(-c2cc(OC)c(OCCCCCCOCCOCC(=O)N[C@H](C(=O)N3C[C@H](O)C[C@H]3C(=O)NCc3ccc(-c4scnc4C)cc3)C(C)(C)C)cc2OC)c1C,102%,> 30 µM,> 30 µM,105%,inhibition (INH) [16]: Active; inhibition (INH) [17]: Active; inhibition (INH) [18]: Active; Activity (HepG2): Active; inhibition (INH) [19]: Active; Activity (SNU-C4 [20]): inactive; CC50 (SNU-C4 [21]): 9.53 µM
,,,,,,,,,,CC(=O)N[C@H](C(=O)N1C[C@@H](O)C[C@H]1C(=O)NCc1ccc(-c2scnc2C)cc1)C(C)(C)C,,,,,Activity [22]: Not Active

# — ChEMBL document CHEMBL6127111, “First-in-Class Small Molecule Degrader of Pregnane X Receptor Enhances Chemotherapy Efficacy” (J Med Chem, 2024)
